In patent US11547702B2, “Use of amlexanox” (SHANGHAI MICROPORT MEDICAL (GROUP) CO., LTD., priority 2016, dated 2023):

Key:
[1] = tested on: Human Aortic Endothelial Cells (HAECs); test: In vitro cell proliferation test (MTT colorimetry), endothelial cells; conditions: 72 hours, based on the control group, average of 6 tests
[2] = tested on: Human Aortic Smooth Muscle Cells (HASMCs); test: In vitro cell proliferation test (MTT colorimetry), smooth muscle cells; conditions: 72 hours, based on the control group, average of 6 tests
[3] = 1 μmol of each drug in culture medium
[4] = 6 μmol of each drug in culture medium
[5] = 10 μmol of each drug in culture medium

Row | Compound | Endothelial cell inhibition rate (%) [1, 3] | Endothelial cell inhibition rate (%) [1, 4] | Endothelial cell inhibition rate (%) [1, 5] | Smooth muscle cell inhibition rate (%) [2, 3] | Smooth muscle cell inhibition rate (%) [2, 4] | Smooth muscle cell inhibition rate (%) [2, 5]
1 | CO[C@H]1C[C@@H]2CC[C@@H](C)[C@@](O)(O2)C(=O)C(=O)N2CCCC[C@H]2C(=O)O[C@H]([C@H](C)C[C@@H]2CC[C@@H](O)[C@H](OC)C2)CC(=O)[C@H](C)/C=C(\C)[C@@H](O)[C@@H](OC)C(=O)[C@H](C)C[C@H](C)/C=C/C=C/C=C/1C [Rapamycin, rapamycin] | 7.7% | 16.0% | 21.8% | 9.1% | 18.9% | 
2 | CC(C)c1ccc2oc3nc(N)c(C(=O)O)cc3c(=O)c2c1 [Amlexanox, 2-amimo-7-isopropyl-5-oxo-5H-[1]benzopyrano-[2,3,-b]pyridine-3-carboxylic acid] | 0.9% | 2.8% | 3.5% | 11.6% | 19.0% | 23.4%
